Test results published in the supplement of paper PMC10627819.

How the values were obtained:
S. pneumoniae D39V [1] = assay: fitness (endpoint OD595 vs no drug) (fraction); higher = more growth
Summary of the method: (§1)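 Bacterial fitness was scored as optical density at the stationary-phase transition relative to the robust mean of no-drug control wells. Scores are capped at 1. The growth data were OD595 readings every 30 min for 14 h at 37 °C, background-subtracted against the first reading, from 384-well plates inoculated at OD595 0.01 in TSB, LB Lennox or CY.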

B. subtilis 168 [2] = assay: as above
Summary of the method: as §1

S. pneumoniae D39V [3] = assay: Bliss interaction score (quartile over a dose matrix) (fitness difference); higher = more antagonism (negative = synergy)
Summary of the method: (§2)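 The Bliss score is observed fitness minus expected fitness, where the expected value is the product of single-drug fitness values inferred from combination data. Fitness is OD595 at entry into stationary phase normalised to the plate's robust no-drug mean and capped at 1. Scores are reported as quartiles spanning technical, biological and donor/recipient replicates.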

S. aureus DSM 20231 = assay: as above
Summary of the method: as §2

B. subtilis 168 [4] = assay: as above
Summary of the method: as §2

S. aureus Newman = assay: as above
Summary of the method: as §2
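For Bliss interaction score (quartile over a dose matrix) in this document: first quartile when negative (synergy) and third quartile when positive (antagonism).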
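For fitness (endpoint OD595 vs no drug) in this document: OD595 on entry to stationary phase over no-drug wells; at most 1.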

C[C@H]1c2cccc(O)c2C(=O)C2=C(O)[C@]3(O)C(=O)C(C(N)=O)=C(O)[C@@H](N(C)C)[C@@H]3[C@@H](O)[C@@H]21 [Doxycycline] + CN[C@@H]1[C@H](O)[C@H](NC)[C@H]2O[C@@]3(O)C(=O)C[C@@H](C)O[C@H]3O[C@@H]2[C@H]1O [Spectinomycin]
fitness, S. pneumoniae D39V [1], one replicate
Conditions	first compound 0.003875 µg/mL	first compound 0.00775 µg/mL	first compound 0.031 µg/mL	first compound 0.062 µg/mL
partner 4 µg/mL	0.971	0.908	–	–
partner 8 µg/mL	0.949	0.925	–	–
partner 16 µg/mL	0.804	0.834	0.768	0.673

fitness
Conditions	partner 2 µg/mL	partner 4 µg/mL	partner 8 µg/mL	partner 16 µg/mL
B. subtilis 168 [2], first compound 0.02 µg/mL	0.909	0.881	0.835	–
B. subtilis 168 [2], first compound 0.04 µg/mL	0.824	0.828	0.712	–
B. subtilis 168 [2], first compound 0.08 µg/mL	0.546	–	0.402	–
S. pneumoniae D39V [1], first compound 0.0155 µg/mL	–	0.91	0.869	0.805
S. pneumoniae D39V [1], first compound 0.031 µg/mL	–	0.879	0.822	–
S. pneumoniae D39V [1], first compound 0.062 µg/mL	–	0.783	0.758	–

Conditions	Bliss interaction score
B. subtilis 168 [4]	-0.0339
S. aureus DSM 20231	-0.0389
S. aureus Newman	-0.0405
S. pneumoniae D39V [3]	-0.0375

C[C@H]1c2cccc(O)c2C(=O)C2=C(O)[C@]3(O)C(=O)C(C(N)=O)=C(O)[C@@H](N(C)C)[C@@H]3[C@@H](O)[C@@H]21 [Doxycycline] + Cc1onc(-c2ccccc2)c1C(=O)N[C@@H]1C(=O)N2[C@@H]1SC(C)(C)[C@@H]2C(=O)O [Oxacillin]
fitness, one replicate
Conditions	partner 0.0078 µg/mL	partner 0.01 µg/mL	partner 0.0155 µg/mL	partner 0.02 µg/mL	partner 0.031 µg/mL	partner 0.04 µg/mL	partner 0.075 µg/mL	partner 0.15 µg/mL	partner 0.3 µg/mL
B. subtilis 168 [2], first compound 0.02 µg/mL	≥ 1	–	≥ 1	–	≥ 1	–	0.661	0.0438	0.0604
B. subtilis 168 [2], first compound 0.04 µg/mL	0.858	–	0.843	–	0.843	–	0.576	0.025	0.0223
B. subtilis 168 [2], first compound 0.08 µg/mL	0.721	–	0.742	–	0.716	–	0.102	0.0327	0.0213
S. pneumoniae D39V [1], first compound 0.003875 µg/mL	–	≥ 1	–	0.978	–	0.357	–	–	–
S. pneumoniae D39V [1], first compound 0.00775 µg/mL	–	≥ 1	–	0.959	–	0.571	–	–	–

Conditions	fitness
B. subtilis 168 [2], first compound 0.02 µg/mL, partner 0.002 µg/mL	0.885
B. subtilis 168 [2], first compound 0.02 µg/mL, partner 0.004 µg/mL	0.933
B. subtilis 168 [2], first compound 0.02 µg/mL, partner 0.008 µg/mL	0.882
B. subtilis 168 [2], first compound 0.04 µg/mL, partner 0.002 µg/mL	0.762
B. subtilis 168 [2], first compound 0.04 µg/mL, partner 0.004 µg/mL	0.771
B. subtilis 168 [2], first compound 0.04 µg/mL, partner 0.008 µg/mL	0.716
B. subtilis 168 [2], first compound 0.08 µg/mL, partner 0.002 µg/mL	0.419
B. subtilis 168 [2], first compound 0.08 µg/mL, partner 0.004 µg/mL	0.422
B. subtilis 168 [2], first compound 0.08 µg/mL, partner 0.008 µg/mL	0.372
S. pneumoniae D39V [1], first compound 0.0155 µg/mL, partner 0.01 µg/mL	0.957
S. pneumoniae D39V [1], first compound 0.0155 µg/mL, partner 0.02 µg/mL	0.921
S. pneumoniae D39V [1], first compound 0.031 µg/mL, partner 0.01 µg/mL	0.917
S. pneumoniae D39V [1], first compound 0.031 µg/mL, partner 0.02 µg/mL	0.885
S. pneumoniae D39V [1], first compound 0.062 µg/mL, partner 0.01 µg/mL	0.859
S. pneumoniae D39V [1], first compound 0.062 µg/mL, partner 0.02 µg/mL	0.801
S. pneumoniae D39V [1], first compound 0.062 µg/mL, partner 0.04 µg/mL	0.71

Conditions	Bliss interaction score
B. subtilis 168 [4]	0.0493
S. aureus DSM 20231	0.0402
S. aureus Newman	-0.0136
S. pneumoniae D39V [3]	0.159

C[C@H]1c2cccc(O)c2C(=O)C2=C(O)[C@]3(O)C(=O)C(C(N)=O)=C(O)[C@@H](N(C)C)[C@@H]3[C@@H](O)[C@@H]21 [Doxycycline] + CN[C@@H]1[C@H](O[C@H]2[C@H](O[C@H]3[C@H](O)[C@@H](O)[C@H](N=C(N)N)[C@@H](O)[C@@H]3N=C(N)N)O[C@@H](C)[C@]2(O)C=O)O[C@@H](CO)[C@H](O)[C@H]1O [Streptomycin]
S. pneumoniae D39V [1], one replicate
Conditions	fitness
first compound 0.003875 µg/mL, partner 2 µg/mL	0.955
first compound 0.003875 µg/mL, partner 4 µg/mL	≥ 1
first compound 0.003875 µg/mL, partner 8 µg/mL	0.977
first compound 0.00775 µg/mL, partner 2 µg/mL	0.928
first compound 0.00775 µg/mL, partner 4 µg/mL	0.952
first compound 0.00775 µg/mL, partner 8 µg/mL	0.937
first compound 0.0155 µg/mL, partner 16 µg/mL	0.741
first compound 0.031 µg/mL, partner 16 µg/mL	0.671
first compound 0.062 µg/mL, partner 16 µg/mL	0.57

fitness
Conditions	partner 2 µg/mL	partner 4 µg/mL	partner 8 µg/mL
B. subtilis 168 [2], first compound 0.02 µg/mL	0.902	0.772	–
B. subtilis 168 [2], first compound 0.04 µg/mL	0.766	0.678	–
B. subtilis 168 [2], first compound 0.08 µg/mL	0.497	–	–
S. pneumoniae D39V [1], first compound 0.0155 µg/mL	0.9	0.895	0.891
S. pneumoniae D39V [1], first compound 0.031 µg/mL	0.866	0.859	0.837
S. pneumoniae D39V [1], first compound 0.062 µg/mL	0.72	0.714	0.735

Conditions	Bliss interaction score
B. subtilis 168 [4]	0.251
S. aureus DSM 20231	0.0508
S. aureus Newman	-0.016
S. pneumoniae D39V [3]	-0.0673

COc1cccc2c1C(=O)c1c(O)c3c(c(O)c1C2=O)C[C@@](O)(C(=O)CO)C[C@@H]3O[C@H]1C[C@H](N)[C@H](O)[C@H](C)O1 [Doxorubicin] + C[C@H]1COc2c(N3CCN(C)CC3)c(F)cc3c(=O)c(C(=O)O)cn1c23 [Levofloxacin]
Conditions	fitness
B. subtilis 168 [2], first compound 0.625 µg/mL, partner 0.002 µg/mL	0.93
B. subtilis 168 [2], first compound 0.625 µg/mL, partner 0.0039 µg/mL	0.927
B. subtilis 168 [2], first compound 0.625 µg/mL, partner 0.0312 µg/mL	0.0411
B. subtilis 168 [2], first compound 0.625 µg/mL, partner 0.0625 µg/mL	0.0463
B. subtilis 168 [2], first compound 0.625 µg/mL, partner 0.125 µg/mL	0.0495
B. subtilis 168 [2], first compound 1.25 µg/mL, partner 0.002 µg/mL	0.901
B. subtilis 168 [2], first compound 1.25 µg/mL, partner 0.0039 µg/mL	0.873
B. subtilis 168 [2], first compound 1.25 µg/mL, partner 0.0312 µg/mL	0.0455
B. subtilis 168 [2], first compound 1.25 µg/mL, partner 0.0625 µg/mL	0.0566
B. subtilis 168 [2], first compound 1.25 µg/mL, partner 0.125 µg/mL	0.0562
B. subtilis 168 [2], first compound 2.5 µg/mL, partner 0.002 µg/mL	0.791
B. subtilis 168 [2], first compound 2.5 µg/mL, partner 0.0039 µg/mL	0.73
B. subtilis 168 [2], first compound 2.5 µg/mL, partner 0.0312 µg/mL	0.031
B. subtilis 168 [2], first compound 2.5 µg/mL, partner 0.0625 µg/mL	0.0389
B. subtilis 168 [2], first compound 2.5 µg/mL, partner 0.125 µg/mL	0.0379
S. pneumoniae D39V [1], first compound 0.25 µg/mL, partner 0.1725 µg/mL	0.853
S. pneumoniae D39V [1], first compound 0.25 µg/mL, partner 0.2 µg/mL	0.904
S. pneumoniae D39V [1], first compound 0.25 µg/mL, partner 0.345 µg/mL	0.776
S. pneumoniae D39V [1], first compound 0.25 µg/mL, partner 0.4 µg/mL	0.834
S. pneumoniae D39V [1], first compound 0.25 µg/mL, partner 0.69 µg/mL	0.509
S. pneumoniae D39V [1], first compound 0.5 µg/mL, partner 0.1725 µg/mL	0.941
S. pneumoniae D39V [1], first compound 0.5 µg/mL, partner 0.2 µg/mL	0.942
S. pneumoniae D39V [1], first compound 0.5 µg/mL, partner 0.345 µg/mL	0.871
S. pneumoniae D39V [1], first compound 0.5 µg/mL, partner 0.4 µg/mL	0.831
S. pneumoniae D39V [1], first compound 0.5 µg/mL, partner 0.69 µg/mL	0.571
S. pneumoniae D39V [1], first compound 1 µg/mL, partner 0.1725 µg/mL	0.875
S. pneumoniae D39V [1], first compound 1 µg/mL, partner 0.2 µg/mL	0.854
S. pneumoniae D39V [1], first compound 1 µg/mL, partner 0.345 µg/mL	0.798
S. pneumoniae D39V [1], first compound 1 µg/mL, partner 0.4 µg/mL	0.736
S. pneumoniae D39V [1], first compound 1 µg/mL, partner 0.69 µg/mL	0.548
S. pneumoniae D39V [1], first compound 1 µg/mL, partner 0.8 µg/mL	0.342

fitness, B. subtilis 168 [2], one replicate
Conditions	first compound 0.625 µg/mL	first compound 1.25 µg/mL	first compound 2.5 µg/mL
partner 0.001 µg/mL	≥ 1	0.98	0.943
partner 0.0078 µg/mL	0.888	0.894	0.567

Conditions	Bliss interaction score
B. subtilis 168 [4]	0.0423
S. aureus DSM 20231	0.0678
S. aureus Newman	0.133
S. pneumoniae D39V [3]	-0.0424
